# Laboratory results taken from PubChem BioAssay (NCI).
#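 Compound exposure: 48 hours, 5 concentrations, 96-well plates. GI50: concentration for 50% inhibition of growth. TGI: total growth inhibition.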
# Columns and labels:
# Experiment in all cases: inhibition of tumour cell growth, NCI panel, 48 h
# [1] = system: SK-MEL-2 melanoma
# [2] = system: CAKI-1 renal
# [3] = system: SK-MEL-5 melanoma
# [4] = system: HCT-116 colon
# [5] = system: NCI-H460 lung
# [6] = system: HCC-2998 colon
# [7] = system: HS 578T breast
# [8] = system: MALME-3M melanoma
# [9] = system: DU-145 prostate
# [10] = system: MCF7 breast
# [11] = system: T-47D breast
# [12] = system: COLO 205 colon
# [13] = system: UACC-257 melanoma
# [14] = system: OVCAR-8 ovarian
# [15] = system: ACHN renal
# [16] = system: SF-268 CNS
# [17] = system: HCT-15 colon
# [18] = system: K-562 leukemia
# [19] = system: OVCAR-4 ovarian
# [20] = system: LOX IMVI melanoma
# [21] = system: HL-60(TB) leukemia
# [22] = system: A498 renal
# [23] = system: OVCAR-3 ovarian
# [24] = system: RPMI-8226 leukemia
# [25] = system: SF-539 CNS
# [26] = system: SW-620 colon
# [27] = system: UACC-62 melanoma
# [28] = system: U251 CNS
# [29] = system: CCRF-CEM leukemia
# [30] = system: OVCAR-5 ovarian
# [31] = system: EKVX NSCLC
# [32] = system: IGROV1 ovarian
# [33] = system: NCI-H522 lung
# [34] = system: HOP-62 NSCLC
# [35] = system: MOLT-4 leukemia
# [36] = system: RXF 393 renal
# [37] = system: KM12 colon
# [38] = system: NCI-H23 lung
# [39] = system: A549 NSCLC
# [40] = system: MDA-MB-231 breast
# [41] = system: SNB-75 CNS
# [42] = system: 786-0 renal
# [43] = system: SF-295 CNS
# [44] = system: NCI/ADR-RES ovarian
# [45] = system: SN12C renal
# [46] = system: SNB-19 CNS
# [47] = system: M14 melanoma
# [48] = system: NCI-H226 lung
# [49] = system: TK-10 renal
# [50] = system: PC-3 prostate
# [51] = system: SK-MEL-28 melanoma
# [52] = system: MDA-MB-435
# [53] = system: SK-OV-3 ovarian
# [54] = system: HT29 colon
# [55] = system: BT-549 breast
# [56] = system: SR leukemia
# [57] = system: UO-31 renal
# [58] = system: HOP-92 NSCLC
compound,measurement,setting,value
COc1ccc(/C=C2/CSCC3=C2NC(=S)NC3c2ccc(OC)c(OC)c2OC)c(OC)c1OC (configuration not stated),TGI,[1],63.6 µM
same,TGI,[2],92.2 µM
same,TGI,[3],29.8 µM
same,TGI,[4],60 µM
same,TGI,[5],> 100 µM
same,TGI,[6],77.9 µM
same,TGI,[7],> 100 µM
same,TGI,[8],78.6 µM
same,TGI,[9],> 100 µM
same,TGI,[10],> 100 µM
same,TGI,[11],> 100 µM
same,TGI,[12],76.9 µM
same,TGI,[13],67.7 µM
same,TGI,[14],> 100 µM
same,TGI,[15],52.5 µM
same,TGI,[16],> 100 µM
same,TGI,[17],> 100 µM
same,TGI,[18],> 100 µM
same,TGI,[19],74.4 µM
same,TGI,[20],58.3 µM
same,TGI,[21],> 100 µM
same,TGI,[22],39.1 µM
same,TGI,[23],> 100 µM
same,TGI,[24],> 100 µM
same,TGI,[25],49.5 µM
same,TGI,[26],91.6 µM
same,TGI,[27],45 µM
same,TGI,[28],> 100 µM
same,TGI,[29],> 100 µM
same,TGI,[30],57.5 µM
same,TGI,[31],> 100 µM
same,TGI,[32],44.7 µM
same,TGI,[33],97.5 µM
same,TGI,[34],47.9 µM
same,TGI,[35],> 100 µM
same,TGI,[36],52.9 µM
same,TGI,[37],34.1 µM
same,TGI,[38],43 µM
same,TGI,[39],95.9 µM
same,TGI,[40],59.4 µM
same,TGI,[41],> 100 µM
same,TGI,[42],40.7 µM
same,TGI,[43],> 100 µM
same,TGI,[44],32.2 µM
same,TGI,[45],71.8 µM
same,TGI,[46],51.5 µM
same,TGI,[47],32.6 µM
same,TGI,[48],99.3 µM
same,TGI,[49],75.5 µM
same,TGI,[50],46.2 µM
same,TGI,[51],81.9 µM
same,TGI,[52],61.4 µM
same,TGI,[53],> 100 µM
same,TGI,[54],61.1 µM
CCOC(=O)CC(c1ccccc1)C(C)(C(=O)OCC)C(=O)OCC (configuration not stated),TGI,[1],> 100 µM
same,TGI,[55],> 100 µM
same,TGI,[56],> 100 µM
same,TGI,[57],> 100 µM
same,TGI,[2],> 100 µM
same,TGI,[3],> 100 µM
same,TGI,[4],> 100 µM
same,TGI,[5],> 100 µM
same,TGI,[6],> 100 µM
same,TGI,[7],> 100 µM
same,TGI,[8],> 100 µM
same,TGI,[9],> 100 µM
same,TGI,[10],> 100 µM
same,TGI,[11],> 100 µM
same,TGI,[12],> 100 µM
same,TGI,[13],> 100 µM
same,TGI,[14],> 100 µM
same,TGI,[15],> 100 µM
same,TGI,[16],> 100 µM
same,TGI,[17],> 100 µM
same,TGI,[18],> 100 µM
same,TGI,[19],> 100 µM
same,TGI,[20],> 100 µM
same,TGI,[21],> 100 µM
same,TGI,[25],> 100 µM
same,TGI,[26],> 100 µM
same,TGI,[27],> 100 µM
same,TGI,[28],> 100 µM
same,TGI,[29],> 100 µM
same,TGI,[30],> 100 µM
same,TGI,[31],> 100 µM
same,TGI,[32],> 100 µM
same,TGI,[33],> 100 µM
same,TGI,[34],> 100 µM
same,TGI,[35],> 100 µM
same,TGI,[36],60.9 µM
same,TGI,[37],> 100 µM
same,TGI,[38],> 100 µM
same,TGI,[39],> 100 µM
same,TGI,[40],> 100 µM
same,TGI,[41],> 100 µM
same,TGI,[42],> 100 µM
same,TGI,[43],> 100 µM
same,TGI,[44],> 100 µM
same,TGI,[45],> 100 µM
same,TGI,[46],> 100 µM
same,TGI,[47],> 100 µM
same,TGI,[48],> 100 µM
same,TGI,[49],> 100 µM
same,TGI,[50],> 100 µM
same,TGI,[51],> 100 µM
same,TGI,[53],> 100 µM
same,TGI,[54],> 100 µM
COc1ccc2c(c1)c(-c1nc(-c3c[nH]c4ncccc34)cs1)cn2CCCN1CCCCC1,GI50,[1],1.85 µM
same,TGI,[1],3.72 µM
same,GI50,[55],3.28 µM
same,TGI,[55],12.7 µM
same,GI50,[57],1.38 µM
same,TGI,[57],2.83 µM
same,GI50,[5],1.94 µM
same,TGI,[5],3.88 µM
same,GI50,[6],1.78 µM
same,TGI,[6],3.42 µM
same,GI50,[7],2.05 µM
same,TGI,[7],5.61 µM
same,GI50,[9],1.65 µM
same,TGI,[9],3.13 µM
same,GI50,[10],1.43 µM
same,TGI,[10],2.9 µM
same,GI50,[12],1.8 µM
same,TGI,[12],3.52 µM
same,GI50,[13],1.96 µM
same,TGI,[13],3.69 µM
same,GI50,[14],2 µM
same,TGI,[14],3.76 µM
same,GI50,[15],1.62 µM
same,TGI,[15],3.01 µM
same,GI50,[16],1.52 µM
same,TGI,[16],3.17 µM
same,GI50,[17],1.57 µM
same,TGI,[17],2.97 µM
same,GI50,[18],1.88 µM
same,TGI,[18],4.16 µM
same,GI50,[19],1.83 µM
same,TGI,[19],4.35 µM
same,GI50,[20],1.67 µM
same,TGI,[20],3.18 µM
same,GI50,[21],1.86 µM
same,TGI,[21],3.79 µM
same,GI50,[22],1.82 µM
same,TGI,[22],3.42 µM
same,GI50,[23],1.63 µM
same,TGI,[23],3.1 µM
same,GI50,[24],2.19 µM
same,TGI,[24],4.8 µM
same,GI50,[25],1.63 µM
same,TGI,[25],3.07 µM
same,GI50,[26],2 µM
same,TGI,[26],3.95 µM
same,GI50,[27],1.87 µM
same,TGI,[27],3.53 µM
same,GI50,[28],1.78 µM
same,TGI,[28],3.21 µM
same,GI50,[30],1.73 µM
same,TGI,[30],3.8 µM
same,GI50,[31],1.44 µM
same,TGI,[31],2.9 µM
same,GI50,[34],1.61 µM
same,TGI,[34],3.2 µM
same,GI50,[36],1.59 µM
same,TGI,[36],3.2 µM
same,GI50,[37],1.87 µM
same,TGI,[37],3.86 µM
same,GI50,[38],1.77 µM
same,TGI,[38],3.52 µM
same,GI50,[39],1.86 µM
same,TGI,[39],3.53 µM
same,GI50,[40],1.66 µM
same,TGI,[40],3.27 µM
same,GI50,[41],1.19 µM
same,TGI,[41],3.09 µM
same,GI50,[42],1.61 µM
same,TGI,[42],3.06 µM
same,GI50,[58],1.5 µM
same,TGI,[58],3.1 µM
same,GI50,[44],1.72 µM
same,TGI,[44],3.44 µM
same,GI50,[45],1.75 µM
same,TGI,[45],3.36 µM
same,GI50,[47],1.79 µM
same,TGI,[47],3.51 µM
same,GI50,[49],1.59 µM
same,TGI,[49],3.03 µM
same,GI50,[50],1.7 µM
same,TGI,[50],3.29 µM
same,GI50,[51],1.72 µM
same,TGI,[51],3.26 µM
same,GI50,[52],1.7 µM
same,TGI,[52],3.21 µM
same,GI50,[53],1.73 µM
same,TGI,[53],3.27 µM
same,GI50,[54],1.81 µM
same,TGI,[54],3.53 µM
